Literature values in patent publication US20240148640A1, “TOPICAL OXYBUTYNIN FOR HOT FLASHES” (CELISTA PHARMACEUTICALS LLC, priority 2022, published 2024).

For `CCN(CC)CC#CCOC(=O)C(O)(c1ccccc1)C1CCCCC1` (centres unmarked) [oxybutynin], the “reduction of hot flashes” value (given orally (Leon-Ferre et al., 2020)) is listed as 75% and the “frequency and intensity of hot flashes” value (women with frequent hot flashes, incl. breast cancer survivors on tamoxifen or aromatase inhibitors (Kligman et al., 2010)) is listed as “reduced the frequency and intensity of hot flashes”.
